Source: article doi:10.1101/2023.08.21.553510v1 (biorxiv, 2023)

Legend:
[1] = target: T1, RyR2 (Mus musculus, UniProt E9Q401); assay: ER Ca2+; assay type: cell-based
[2] = target: T1, RyR2; assay: [3H]ryanodine binding to microsomes; assay type: biochemical

T1 sequence (E9Q401 whole entry): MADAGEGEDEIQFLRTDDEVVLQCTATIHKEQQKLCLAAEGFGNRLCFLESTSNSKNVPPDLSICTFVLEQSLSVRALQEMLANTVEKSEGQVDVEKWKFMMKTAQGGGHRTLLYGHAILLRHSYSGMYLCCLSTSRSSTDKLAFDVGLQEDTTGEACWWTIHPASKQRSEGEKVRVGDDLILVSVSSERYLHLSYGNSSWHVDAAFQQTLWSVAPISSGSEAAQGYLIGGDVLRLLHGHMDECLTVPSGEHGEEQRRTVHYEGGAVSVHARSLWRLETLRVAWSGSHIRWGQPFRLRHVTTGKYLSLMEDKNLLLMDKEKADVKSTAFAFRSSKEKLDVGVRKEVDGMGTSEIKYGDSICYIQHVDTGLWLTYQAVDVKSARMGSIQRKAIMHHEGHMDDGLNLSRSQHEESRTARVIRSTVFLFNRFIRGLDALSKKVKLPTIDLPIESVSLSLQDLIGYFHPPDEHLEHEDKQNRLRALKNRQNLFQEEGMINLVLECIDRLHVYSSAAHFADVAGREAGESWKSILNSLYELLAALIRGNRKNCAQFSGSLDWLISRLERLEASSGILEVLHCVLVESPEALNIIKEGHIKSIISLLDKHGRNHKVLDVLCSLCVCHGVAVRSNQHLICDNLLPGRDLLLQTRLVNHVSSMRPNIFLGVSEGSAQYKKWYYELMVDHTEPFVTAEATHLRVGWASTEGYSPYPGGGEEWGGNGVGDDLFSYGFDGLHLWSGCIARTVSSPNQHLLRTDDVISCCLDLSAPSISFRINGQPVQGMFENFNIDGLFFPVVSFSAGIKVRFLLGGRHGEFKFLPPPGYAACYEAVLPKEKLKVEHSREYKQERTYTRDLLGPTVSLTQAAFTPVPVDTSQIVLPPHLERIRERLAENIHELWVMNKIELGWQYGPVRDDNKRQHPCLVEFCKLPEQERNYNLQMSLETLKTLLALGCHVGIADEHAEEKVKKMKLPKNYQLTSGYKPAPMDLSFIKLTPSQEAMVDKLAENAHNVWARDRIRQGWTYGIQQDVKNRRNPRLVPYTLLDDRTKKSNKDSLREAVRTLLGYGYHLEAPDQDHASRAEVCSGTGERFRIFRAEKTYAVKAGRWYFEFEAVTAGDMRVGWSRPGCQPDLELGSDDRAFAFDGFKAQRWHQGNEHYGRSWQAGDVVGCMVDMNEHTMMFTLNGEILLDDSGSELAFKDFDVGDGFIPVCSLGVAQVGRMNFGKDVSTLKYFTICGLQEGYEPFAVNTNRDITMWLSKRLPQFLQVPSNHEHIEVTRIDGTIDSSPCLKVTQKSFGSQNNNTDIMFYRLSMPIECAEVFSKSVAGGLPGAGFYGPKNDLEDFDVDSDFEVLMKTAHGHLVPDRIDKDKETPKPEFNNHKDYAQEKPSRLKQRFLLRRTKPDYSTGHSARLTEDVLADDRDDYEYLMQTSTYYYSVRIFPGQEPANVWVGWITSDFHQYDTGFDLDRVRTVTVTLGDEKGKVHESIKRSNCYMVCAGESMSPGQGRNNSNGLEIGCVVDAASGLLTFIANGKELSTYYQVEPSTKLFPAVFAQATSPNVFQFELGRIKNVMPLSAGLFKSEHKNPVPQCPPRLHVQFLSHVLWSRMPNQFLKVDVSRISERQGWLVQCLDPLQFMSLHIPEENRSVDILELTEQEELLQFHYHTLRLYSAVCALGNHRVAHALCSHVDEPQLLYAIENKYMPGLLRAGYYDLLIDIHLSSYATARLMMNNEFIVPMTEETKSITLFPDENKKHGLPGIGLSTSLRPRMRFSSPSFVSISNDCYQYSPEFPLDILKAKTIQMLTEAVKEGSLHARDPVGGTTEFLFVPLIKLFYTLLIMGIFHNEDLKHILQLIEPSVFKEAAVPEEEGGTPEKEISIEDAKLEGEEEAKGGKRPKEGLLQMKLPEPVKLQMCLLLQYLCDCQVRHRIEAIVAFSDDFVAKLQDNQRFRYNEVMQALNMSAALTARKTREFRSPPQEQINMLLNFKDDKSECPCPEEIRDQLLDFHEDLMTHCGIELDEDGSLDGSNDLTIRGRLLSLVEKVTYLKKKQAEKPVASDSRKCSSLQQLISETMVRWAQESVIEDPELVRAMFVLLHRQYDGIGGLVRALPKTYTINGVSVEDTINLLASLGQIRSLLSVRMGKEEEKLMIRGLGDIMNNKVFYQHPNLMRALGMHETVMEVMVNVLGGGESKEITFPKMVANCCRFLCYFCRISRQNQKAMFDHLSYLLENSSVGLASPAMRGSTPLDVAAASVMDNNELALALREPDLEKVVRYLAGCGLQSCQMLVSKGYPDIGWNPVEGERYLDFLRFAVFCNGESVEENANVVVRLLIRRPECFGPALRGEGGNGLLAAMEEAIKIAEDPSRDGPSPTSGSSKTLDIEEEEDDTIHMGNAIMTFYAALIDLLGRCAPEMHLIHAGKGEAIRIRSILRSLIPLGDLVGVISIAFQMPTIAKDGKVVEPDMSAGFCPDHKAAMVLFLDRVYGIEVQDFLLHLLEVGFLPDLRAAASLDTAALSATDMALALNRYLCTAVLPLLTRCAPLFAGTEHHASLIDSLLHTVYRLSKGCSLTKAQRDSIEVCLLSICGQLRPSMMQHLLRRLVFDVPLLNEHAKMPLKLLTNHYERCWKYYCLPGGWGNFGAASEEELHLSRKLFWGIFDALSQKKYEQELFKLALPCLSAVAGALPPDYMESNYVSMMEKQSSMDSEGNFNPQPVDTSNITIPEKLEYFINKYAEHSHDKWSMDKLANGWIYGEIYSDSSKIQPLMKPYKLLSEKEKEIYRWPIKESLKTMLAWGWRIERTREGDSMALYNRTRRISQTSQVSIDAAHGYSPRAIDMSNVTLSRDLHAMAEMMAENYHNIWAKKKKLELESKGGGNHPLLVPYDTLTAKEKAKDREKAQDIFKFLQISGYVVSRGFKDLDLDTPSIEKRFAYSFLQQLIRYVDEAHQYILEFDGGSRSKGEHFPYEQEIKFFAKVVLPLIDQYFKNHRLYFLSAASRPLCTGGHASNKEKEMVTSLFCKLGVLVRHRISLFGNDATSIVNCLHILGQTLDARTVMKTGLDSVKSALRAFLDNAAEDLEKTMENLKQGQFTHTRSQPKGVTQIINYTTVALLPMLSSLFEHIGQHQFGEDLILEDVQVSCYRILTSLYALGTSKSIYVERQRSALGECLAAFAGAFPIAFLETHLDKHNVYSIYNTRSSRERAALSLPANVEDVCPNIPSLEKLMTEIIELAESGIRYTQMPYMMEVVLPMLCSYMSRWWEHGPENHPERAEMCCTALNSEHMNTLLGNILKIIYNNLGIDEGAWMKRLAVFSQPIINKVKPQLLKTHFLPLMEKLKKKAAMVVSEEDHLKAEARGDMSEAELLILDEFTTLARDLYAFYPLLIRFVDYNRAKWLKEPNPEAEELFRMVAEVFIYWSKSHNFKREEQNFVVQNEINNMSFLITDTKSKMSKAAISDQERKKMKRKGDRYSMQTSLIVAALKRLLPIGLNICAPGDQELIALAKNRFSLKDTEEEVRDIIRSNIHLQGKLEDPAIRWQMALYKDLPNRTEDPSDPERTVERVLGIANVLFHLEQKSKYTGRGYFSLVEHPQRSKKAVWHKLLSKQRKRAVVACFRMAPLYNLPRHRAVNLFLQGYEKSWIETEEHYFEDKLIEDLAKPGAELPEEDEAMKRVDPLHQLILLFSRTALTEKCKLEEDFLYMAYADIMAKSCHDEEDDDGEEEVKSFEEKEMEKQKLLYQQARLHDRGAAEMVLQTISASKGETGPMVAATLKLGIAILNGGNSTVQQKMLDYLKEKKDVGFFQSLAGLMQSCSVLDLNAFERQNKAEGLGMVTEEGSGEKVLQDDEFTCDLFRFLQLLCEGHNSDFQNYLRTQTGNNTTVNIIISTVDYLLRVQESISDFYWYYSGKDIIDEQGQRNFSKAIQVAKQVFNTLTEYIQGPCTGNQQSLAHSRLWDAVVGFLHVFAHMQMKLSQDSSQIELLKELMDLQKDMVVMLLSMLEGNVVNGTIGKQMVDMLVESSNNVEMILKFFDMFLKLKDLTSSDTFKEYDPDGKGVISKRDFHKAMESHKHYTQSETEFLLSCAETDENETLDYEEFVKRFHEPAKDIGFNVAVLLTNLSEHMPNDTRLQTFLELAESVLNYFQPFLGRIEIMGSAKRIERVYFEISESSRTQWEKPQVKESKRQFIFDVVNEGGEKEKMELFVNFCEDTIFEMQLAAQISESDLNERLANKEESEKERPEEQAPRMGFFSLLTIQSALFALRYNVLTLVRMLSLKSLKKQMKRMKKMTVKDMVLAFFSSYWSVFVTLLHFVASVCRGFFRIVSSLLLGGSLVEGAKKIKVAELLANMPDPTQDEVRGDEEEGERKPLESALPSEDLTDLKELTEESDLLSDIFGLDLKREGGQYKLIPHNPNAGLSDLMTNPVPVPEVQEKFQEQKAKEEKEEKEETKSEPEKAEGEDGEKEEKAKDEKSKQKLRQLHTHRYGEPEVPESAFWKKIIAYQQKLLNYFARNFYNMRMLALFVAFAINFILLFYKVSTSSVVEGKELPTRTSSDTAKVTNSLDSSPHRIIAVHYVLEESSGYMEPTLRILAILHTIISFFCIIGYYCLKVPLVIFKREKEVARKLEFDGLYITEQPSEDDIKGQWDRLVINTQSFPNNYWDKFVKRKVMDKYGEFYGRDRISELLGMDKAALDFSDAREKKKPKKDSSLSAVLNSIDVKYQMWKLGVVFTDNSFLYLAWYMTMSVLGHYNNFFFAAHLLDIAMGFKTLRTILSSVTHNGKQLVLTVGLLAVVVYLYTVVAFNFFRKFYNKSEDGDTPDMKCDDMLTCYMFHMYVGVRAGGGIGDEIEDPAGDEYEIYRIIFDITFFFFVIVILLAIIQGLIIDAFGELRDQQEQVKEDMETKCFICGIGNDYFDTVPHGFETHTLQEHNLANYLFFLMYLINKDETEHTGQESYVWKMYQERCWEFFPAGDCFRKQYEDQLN

## Cc1cc(O)cc(C)c1Cl [#1, chloroxylenol]
[1]
  EC50: 300 nM
[2]
  IC50: 130 nM
